System: CSM14.1 cells
Assay: ER stress cell survival assay (thapsigargin);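 for cell survival: survival read as CellTiter-Glo luminescence after overnight incubation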
Format: cell-based
Conditions: compound 2 μM; about 15 μM thapsigargin; CSM14.1 cells
Procedure: ER Stress Cell Survival Assay
CSM14.1 cells were maintained in Complete Medium at 32° C.; wherein the Complete Medium contained Dulbecco's modified eagle medium (DMEM) with 10% fetal bovine serum (FSB), 1% L-glutamine, 100 IU/mL penicillin, and 100 μg/mL streptomycin. The cells were recovered from cultures by trypsinization and then seeded in 384 well plates (Greiner #781098) at a concentration of 1,000 cells/well in 20 μL of DMEM Assay Medium, wherein the DMEM Assay Medium contained 2% FBS, 100 IU/mL penicillin, and 100 μg/mL streptomycin. Seeding was performed using a MultiDrop Combi reagent broadcaster. The plates were incubated overnight at 32° C.
A test compound was prepared by 2-fold serial dilution in 100% DMSO using a BIOMEK® 2000 liquid handler (Beckman Coulter). A dose-response curve containing 10 concentrations of the test compound was obtained. Using a BIOMEK® FX liquid handler (Beckman Coulter), 2.5 μL of the test compound was transferred from the 100% DMSO serial dilution plate to an intermediate plate containing 47.5 μL of DMEM Assay Medium containing 2% FBS, 100 IU/mL penicillin, and 100 μg/mL streptomycin and mixed. To reduce or eliminate the interference from the compound's precipitation, 6 μL of the diluted compound was immediately transferred to the assay plate to achieve a high compound concentration of 100 μM in 99% DMEM Assay Medium and 1% DMSO. After the assay plates were incubated for 2 hrs, 4 μL of 112.5 μM thapsigargin (TG) (DMSO stock diluted into Assay TC Medium) was dispensed into each testing well with a MultiDrop Combi reagent broadcaster for a final concentration of about 15 μM TG. The tissue culture media (4 μL) containing vehicle only was transferred manually to each control cell using a 16 channel electronic pipette. […] High luminescence indicates cell survival.
Alternatively, a test compound was tested at a single compound concentration (e.g., 2 μM) to determine the effect of the compound on cell survival in comparison with vehicle.

Compound | Cell Survival
Cc1ccc2cccc(NC(=O)c3ccc(C(C)(C)C)cc3)c2n1 [Compound A4, 4-(tert-Butyl)-N-(2-methylquinolin-8-yl)benzamide] | D (D represents a value no greater than 1%)
CCSc1ccc(C(=O)Nc2cccc3ccc(C)nc23)cc1 [Compound C22, 4-(Ethylthio)-N-(2-methylquinolin-8-yl)benzamide] | D (D represents a value no greater than 1%)

Same assay, conditions: dose-response

Compound | EC50 [µM]
Cc1ccc2cccc(NC(=O)c3ccc(C(C)(C)C)cc3)c2n1 [Compound A4, 4-(tert-Butyl)-N-(2-methylquinolin-8-yl)benzamide] | > 100
Cc1ccc2cccc(NC(=O)c3cc4ccccc4o3)c2n1 [Compound A27, N-(2-Methylquinolin-8-yl)benzofuran-2-carboxamide] | < 20
Cc1ccc2cccc(NC(=O)c3ccc(C)s3)c2n1 [Compound G2, 5-Methyl-N-(2-methylquinolin-8-yl)thiophene-2-carboxamide] | < 20
Cc1ccc2cccc(NC(=O)c3sc(Br)cc3Br)c2n1 [Compound G6, 3,5-Dibromo-N-(2-methylquinolin-8-yl)thiophene-2-carboxamide] | < 20
Cc1ccc2cccc(NC(=O)c3cc(Br)c(Br)s3)c2n1 [Compound G7, 4,5-Dibromo-N-(2-methylquinolin-8-yl)thiophene-2-carboxamide] | < 20

System: HEK293 cells
Assay: Protection against thapsigargin (TG)-induced cell death, HEK293
Format: cell-based, human
Conditions: compound 20 μM; thapsigargin 15 μM; 24 hrs
Procedure: (§1) Protection against Thapsigargin (TG)-induced Cell-death. Human embryonic kidney (HEK293) cells were grown in Dulbecco's Modified Eagle's Medium (DMEM) with 10% FBS and 1% antibiotic antimycotic solution (ABAM). Mouse neuroblastoma (N2a) cells were grown in 1:1 DMEM:OPTI-MEM® with 5% FBS and 1% ABAM. All cells were grown in 10% CO2 in a humidified environment of the incubator. Cells grown in 96-well plates were exposed to a test compound (20 μM) for 2 hrs before addition of thapsigargin (15 μM for HEK293 cells and 1 μM for N2a cells) to induce ER stress. After incubation in cell-culture incubator for 24 hrs, ALAMARBLUE® regent (10% v/v) was added to the wells. Fluorescence reading was taken 2 hrs after the addition of the ALAMARBLUE® regent. Cell-viability was calculated as a percentage of relative fluorescence unit (RFU) compared to control.
(§2) The results are summarized in Table 2, where A represents a value greater than 50% cell rescue, B represents a value between 10% to 50% cell rescue, C represents a value between 1% to 10% cell rescue, and D represents a value no greater than 1% cell rescue.

Compound | HEK293 Cells (TG-induced) cell rescue
COc1ccccc1C(=O)Nc1cccc2ccc(C)nc12 [Compound A9, 2-Methoxy-N-(2-methylquinolin-8-yl)benzamide] | A (A represents a value greater than 50% cell rescue)

System: N2a cells
Assay: Protection against thapsigargin (TG)-induced cell death, N2a
Format: cell-based, mouse
Conditions: compound 20 μM; thapsigargin 1 μM; 24 hrs
Procedure: as §1, §2

Compound | N2a Cells (TG-induced) cell rescue
COc1ccccc1C(=O)Nc1cccc2ccc(C)nc12 [Compound A9, 2-Methoxy-N-(2-methylquinolin-8-yl)benzamide] | A (A represents a value greater than 50% cell rescue)
Cc1ccc2cccc(NC(=O)c3ccc(Br)s3)c2n1 [Compound B1, 5-Bromo-N-(2-methylquinolin-8-yl)thiophene-2-carboxamide] | B (B represents a value between 10% to 50% cell rescue)
Cc1ccc2cccc(NC(=O)c3cc4ccccc4s3)c2n1 [Compound B2, N-(2-Methylquinolin-8-yl)benzo[b]thiophene-2-carboxamide] | A (A represents a value greater than 50% cell rescue)
CC(C)Oc1ccc(C(=O)Nc2cccc3ccc(C(=O)O)nc23)cc1 [Compound E1, 8-(4-Isopropoxybenzamido)quinoline-2-carboxylic Acid] | A (A represents a value greater than 50% cell rescue)
CC(C)Oc1cccc(C(=O)Nc2cccc3ccc(C(=O)O)nc23)c1 [Compound E2, 8-(3-Isopropoxybenzamido)quinoline-2-carboxylic acid] | A (A represents a value greater than 50% cell rescue)
O=C(O)c1ccc2cccc(NC(=O)c3ccc(Br)s3)c2n1 [Compound E3, 8-(5-Bromothiophene-2-carboxamido)quinoline-2-carboxylic Acid] | A (A represents a value greater than 50% cell rescue)
O=C(O)c1ccc2cccc(NC(=O)c3cc4ccccc4s3)c2n1 [Compound E4, 8-(Benzo[b]thiophene-2-carboxamido)quinoline-2-carboxylic Acid] | B (B represents a value between 10% to 50% cell rescue)
Cc1cc(C)n(-c2ccc3cccc(NC(=O)c4cccc(OC(C)C)c4)c3n2)n1 [Compound F1, N-(2-(3,5-Dimethyl-1H-pyrazol-1-yl)quinolin-8-yl)-3-isopropoxybenzamide] | A (A represents a value greater than 50% cell rescue)
Cc1cc(C)n(-c2ccc3cccc(NC(=O)c4ccc(OC(C)C)cc4)c3n2)n1 [Compound F2, N-(2-(3,5-Dimethyl-1H-pyrazol-1-yl)quinolin-8-yl)-4-isopropoxybenzamide] | A (A represents a value greater than 50% cell rescue)
Cc1cc(C)n(-c2ccc3cccc(NC(=O)c4ccc(Br)s4)c3n2)n1 [Compound F3, 5-Bromo-N-(2-(3,5-dimethyl-1H-pyrazol-1-yl)quinolin-8-yl)thiophene-2-carboxamide] | A (A represents a value greater than 50% cell rescue)
Cc1cc(C)n(-c2ccc3cccc(NC(=O)c4cc5ccccc5s4)c3n2)n1 [Compound F4, N-(2-(3,5-Dimethyl-1H-pyrazol-1-yl)quinolin-8-yl)benzo[b]thiophene-2-carboxamide] | B (B represents a value between 10% to 50% cell rescue)

System: N2a cells
Assay: Protection against hydrogen peroxide-induced cell death, N2a
Format: cell-based, mouse
Conditions: compound 40 μM; hydrogen peroxide 200 μM
Procedure: Protection against Hydrogen Peroxide-induced Cell-death. N2a cells grown in 96-well plates were exposed to a test compound (40 μM) for 2 hrs before addition of hydrogen peroxide (200 μM). After 40 min of incubation with hydrogen peroxide, ALAMARBLUE® regent (10% v/v) was added to the wells. Fluorescence reading was taken 2 hrs after the addition of the ALAMARBLUE® regent. Cell-viability was calculated as a percentage of relative fluorescence unit (RFU) compared to control.
as §2

Compound | N2a Cells (H2O2-induced) cell rescue
COc1ccccc1C(=O)Nc1cccc2ccc(C)nc12 [Compound A9, 2-Methoxy-N-(2-methylquinolin-8-yl)benzamide] | B (B represents a value between 10% to 50% cell rescue)
Cc1ccc2cccc(NC(=O)c3cc4ccccc4o3)c2n1 [Compound A27, N-(2-Methylquinolin-8-yl)benzofuran-2-carboxamide] | A (A represents a value greater than 50% cell rescue)
Cc1ccc2cccc(NC(=O)c3ccc(Br)s3)c2n1 [Compound B1, 5-Bromo-N-(2-methylquinolin-8-yl)thiophene-2-carboxamide] | A (A represents a value greater than 50% cell rescue)
Cc1ccc2cccc(NC(=O)c3cc4ccccc4s3)c2n1 [Compound B2, N-(2-Methylquinolin-8-yl)benzo[b]thiophene-2-carboxamide] | B (B represents a value between 10% to 50% cell rescue)
Cc1ccc2cccc(NC(=O)c3ccc(C)s3)c2n1 [Compound G2, 5-Methyl-N-(2-methylquinolin-8-yl)thiophene-2-carboxamide] | A (A represents a value greater than 50% cell rescue)
Cc1ccc2cccc(NC(=O)c3sc(Br)cc3Br)c2n1 [Compound G6, 3,5-Dibromo-N-(2-methylquinolin-8-yl)thiophene-2-carboxamide] | A (A represents a value greater than 50% cell rescue)
Cc1ccc2cccc(NC(=O)c3cc(Br)c(Br)s3)c2n1 [Compound G7, 4,5-Dibromo-N-(2-methylquinolin-8-yl)thiophene-2-carboxamide] | A (A represents a value greater than 50% cell rescue)

System: SERCA (SR vesicles)
Assay: Activation of SERCA, increase in Vmax
Format: biochemical
Conditions: not given

Compound | Increase in Vmax at 10 μM
Cc1ccc2cccc(NC(=O)c3ccc(C(C)(C)C)cc3)c2n1 [Compound A4, 4-(tert-Butyl)-N-(2-methylquinolin-8-yl)benzamide] | B′ (B′ represents an increase between 20 to 50%)
O=C(Nc1cccc2cccnc12)c1cccc(F)c1 [Compound A7, 3-Fluoro-N-(quinolin-8-yl)benzamide] | B′ (B′ represents an increase between 20 to 50%)
CCOc1ccccc1C(=O)Nc1cccc2ccc(C)nc12 [Compound A10, 2-Ethoxy-N-(2-methylquinolin-8-yl)benzamide] | C′ (C′ represents an increase no greater than 20%)
CC(C)Oc1ccc(C(=O)Nc2cccc3cccnc23)cc1 [Compound A11, 4-Isopropoxy-N-(quinolin-8-yl)benzamide] | A′ (A′ represents an increase greater than 50%)
COc1ccc(CCC(=O)Nc2cccc3ccc(C)nc23)cc1 [Compound A23, 3-(4-Methoxyphenyl)-N-(2-methylquinolin-8-yl)propanamide] | A′ (A′ represents an increase greater than 50%)
Cc1ccc2cccc(NC(=O)c3cc4ccccc4o3)c2n1 [Compound A27, N-(2-Methylquinolin-8-yl)benzofuran-2-carboxamide] | A′ (A′ represents an increase greater than 50%)
Cc1ccc2cccc(NC(=O)c3ccc(Br)s3)c2n1 [Compound B1, 5-Bromo-N-(2-methylquinolin-8-yl)thiophene-2-carboxamide] | B′ (B′ represents an increase between 20 to 50%)
Cc1ccc2cccc(NC(=O)c3cc4ccccc4s3)c2n1 [Compound B2, N-(2-Methylquinolin-8-yl)benzo[b]thiophene-2-carboxamide] | A′ (A′ represents an increase greater than 50%)
Cc1ccc2cccc(NC(=O)c3ccc(C)s3)c2n1 [Compound G2, 5-Methyl-N-(2-methylquinolin-8-yl)thiophene-2-carboxamide] | A′ (A′ represents an increase greater than 50%)
Cc1ccc2cccc(NC(=O)c3sc(Br)cc3Br)c2n1 [Compound G6, 3,5-Dibromo-N-(2-methylquinolin-8-yl)thiophene-2-carboxamide] | C′ (C′ represents an increase no greater than 20%)
Cc1ccc2cccc(NC(=O)c3cc(Br)c(Br)s3)c2n1 [Compound G7, 4,5-Dibromo-N-(2-methylquinolin-8-yl)thiophene-2-carboxamide] | A′ (A′ represents an increase greater than 50%)

System: not listed separately
Assay: Pharmacokinetics in CD-1 mice
Format: in vivo, mouse
Conditions: CD-1 mice; 10 mg/kg P.O. vs 2 mg/kg i.v.
Procedure: Pharmacokinetics of test compounds were assessed in CD-1 mice. The compounds were formulated at 1 mg/mL in DMSO/Tween 80/water (10/10/80, vol/vol/vol) and dosed at 2 mg/kg intravenous (i.v.) or 10 mg/kg by oral gavage (P.O.) in triplicate. Blood was drawn at 0.25 h, 0.5 h, 1 hr, 2 hrs, 4 hrs, 8 hrs, and 24 hrs into EDTA containing tubes and plasma was harvested by centrifugation. Plasma (10 μL) containing 50% acetonitrile in water (5 μL) was added to 200 μL of ACN containing an internal standard. The samples were vortexed for 30 s. After centrifugation at […] and 4,000 rpm for 15 min, the supernatant was diluted 3 times with water. Then, 20 μL of diluted supernatant was injected into the LC/MS/MS system for quantitative analysis. The samples were injected onto an Agilent ZORBAX XDB-Phenyl 5μ column (50×2.10 mm). Mobile Phase A was water with 0.1% formic acid. Mobile Phase B was acetonitrile with 0.1% formic acid. Separation was achieved using a gradient of 70% A/30% B to 0% A/100% B over 2.10 min. A Shimadzu LCMS-8050 equipped with a turbo ion spray source was used for all analytical measurements. A positive ion MRM method was developed. Peak areas of the product ion were measured against the peak areas of the internal standard. Data was fit using WinNonLin (Pharsight Corporation, Mountain View, CA).

Compound | F [%]
Cc1ccc2cccc(NC(=O)c3ccc(Br)s3)c2n1 [Compound B1, 5-Bromo-N-(2-methylquinolin-8-yl)thiophene-2-carboxamide] | 2.9
Cc1ccc2cccc(NC(=O)c3ccc(C)s3)c2n1 [Compound G2, 5-Methyl-N-(2-methylquinolin-8-yl)thiophene-2-carboxamide] | 0.85

Same assay, conditions: mouse, plasma; CD-1 mice; 2 mg/kg i.v. or 10 mg/kg P.O.

Compound | AUC [ng·h/mL] | Cmax [nM] | half-life [min]
Cc1ccc2cccc(NC(=O)c3ccc(Br)s3)c2n1 [Compound B1, 5-Bromo-N-(2-methylquinolin-8-yl)thiophene-2-carboxamide] | 21 | 80 | 42
Cc1ccc2cccc(NC(=O)c3ccc(C)s3)c2n1 [Compound G2, 5-Methyl-N-(2-methylquinolin-8-yl)thiophene-2-carboxamide] | 4.5 | 20 | 33.6
